# Assay type: in vitro ADME
# Settings: 0 min, pH 7.4
# Protocol: The liver is the main organ of drug metabolism in the body. Subcellular fractions such as liver microsomes are useful in vitro models of hepatic clearance as they contain many of the drug metabolising enzymes found in the liver. Liver microsomes are subcellular fractions which contain membrane bound drug metabolising enzymes. The microsomes are incubated with the test compound at 37° C. in the presence of the co-factors, which initiates the reaction. The reaction is terminated by the addition of organic solvents containing internal standard. Following centrifugation, the supernatant is analysed on the LC-MS/MS. The disappearance of test compound is monitored over certain time period. Here, a microsome stability assay was used to investigate the metabolism of the compounds; using this assay it is possible to measure in vitro the intrinsic clearance or to identify metabolites formed. For a standard assay the following solutions were used: 360 μL Microsomal solution (1.1 mg/mL in phosphate buffer), 360 μL NADP-regeneration mix (containing NADP (10 mM), MgCl2 (50 mM), glucose-6-phosphate (50 mM), glucose-6-phosphate dehydrogenase (50 U/ml)) and 40 μL phosphate buffer (100 mM, pH 7.4). […] 5 uL of each sample was injected to a UPLC/HRMS system and the peak areas of the extracted ion chromatograms were determined
smiles,measurement,value
"O=C(O)Cc1ccccc1Nc1c(Cl)cccc1Cl [Diclo, Diclofenac]","Area rel. [%], PC",100.0%

# Source: patent US20230202973A1, “BARNESIN A, DERIVATIVES AND USES THEREOF” (Leibniz-Institut Für Naturstoff-Forschung Und …, priority 2018, published 2023)
